Positions of bridges follow the written chain, without caps; N, C: chain ends. No end group written: not given here.
Columns and labels:
rat DRG sensory neurons = experiment: Number of DRG neurons (cytotoxicity, high content imaging); assay type: cell-based; conditions: also RAW264.7 and HMEC
Experimental: We initially determined the cytotoxic effects of xibalbins on primary sensory neurons from adult male rats cultured in vitro [2]. […] We exposed overnight cultures of dissociated rat dorsal root ganglions (DRGs) to xibalbins for 5 and 30 min. Subsequently, all cells were fixed and immunocytochemically stained for the neuronal marker UCHL1 to identify neurons. The entire culture was digitally scanned using high content imaging (HCI) microscopy, and cell numbers, UCHL1 staining per cell, and cell size was analyzed. No loss of neurons was induced by either of the tested xibalbins, even at the highest concentration of 0.8 µg/µL (Additional File 3: Figure S2). […] We further investigated the potential toxicity of xibalbins in monocyte/macrophage-like cells (RAW264.7) and human microvascular endothelial cells (HMEC); see Additional File 5: Figure S4 The viability of RAW264.7 cells was detected using a formazan-based assay, while the proliferation of HMECs was assessed by measuring the number of crystal violet-stained cells.
Male Sprague Dawley rats (250–400 g, 8–16 weeks old) were obtained from Envigo. […]
Stained cells were scanned with a CX7-LZR (Thermo Fisher Scientific) HCI system. Images were acquired with a 10 × objective and analyzed using the cellomics software package (Thermo Fisher Scientific). […] The resulting objects were quantified for average object intensity in all other color channels. […]

[1] = tested on: THP-1 cell adhesion to HMECs; experiment: Adhesion of THP-1 leukocytes onto TNF-activated endothelial cells; assay type: cell-based, human; conditions: 25 µg/ml
Experimental: Nitric oxide has a complex and diverse role in pain modulation. […] Finally, we analyzed the effects of xibalbins on the leukocyte adhesion to the vascular endothelium, which is a critical step in the inflammatory response of inflamed tissues. Xibalbins were analyzed for their ability to alter the adhesion of human monocytic (THP-1) cells onto a TNF-activated endothelial cell monolayer (Additional File 5: Figure S4). […] All individual values for these experiments are given in Additional File 8: Table S3.
Supplementary file 12915_2024_1955_MOESM5_ESM.jpg: Additional file 5: Figure S4. Effects of xibalbins on cytotoxicity in RAW264.7 macrophages and adhesion of leukocytes onto the vascular endothelium. (i) For the viability assay, RAW264.7 cells were treated with 25 μg/ml concentrations of xibalbins for 24 h. Cells were incubated with WST-8 and the formed formazan was detected by absorbance measurements. (ii) For the proliferation assay, HMEC-1 cells were grown in low density and treated after 24 h with the indicated peptide for 72 h. Cells were stained with crystal violet solution. The amount of DNA-bound crystal violet was detected by absorbance measurements. […] The adhesion of leukocytes onto endothelial cells was quantified by fluorescence measurements using a Tecan Infinite F200 Pro microplate reader (Tecan, Männedorf, Switzerland) (excitation: 485 nm, emission: 535 nm). […]

| Sequence | cytolytic or cytotoxic activity (rat DRG sensory neurons) | Prevention of Leukocyte Adh. on HMEC-1 [1] |
| --- | --- | --- |
| KRSCIRRFGRCDHRPNDCCYNSSCRCNLWGSNCRCQRMGLFQKWGK (disulfide 4-19, 11-24, 18-35, 26-33) [xib13] | do not show overt cytolytic or cytotoxic activity | 106.6 |
| RLFCIRHHKYCGHRPKRCCSGLFCRCNTFGTNCRCQSKGALGKLI (disulfide 4-19, 11-24, 18-35, 26-33) [xib1] | do not show overt cytolytic or cytotoxic activity |  |
